US20230044257A1, “COMPOSITIONS AND METHODS FOR ENHANCED UPTAKE OF ACTIVE INGREDIENTS FOR ANIMAL HEALTH AND NUTRITION” (AgroSpheres, Inc., priority 2019, published 2023)

Columns and labels:
[1] = Encapsulation (loading) efficacy of essential oils / active ingredients into AgriCell; format: physicochemical
Protocol: After AgriCells are purified, the concentrated AgriCell paste or dry lyophilized powder is loaded with EOs. If dry, the AgriCells are first homogenized into a finer powder through mechanical homogenization. A stock solution from each EO is prepared in ethanol at 100 mg/mL-200 mg/mL. Lyophilized AgriCells would then be suspended in a solution with the EO solution at a ratio of 1 g of dry AgriCells to 10 mL of EO solution. Once resuspended, the ethanol is allowed to evaporate overnight, leaving behind EO encapsulated AgriCells in the process. After this overnight period, encapsulated AgriCells are removed from the beaker, and the EO-encapsulated AgriCell powder is mechanically homogenized. This encapsulated product is ready for resuspension in its appropriate medium. Loading efficacy was measured and/or calculated as percentage of EO loaded into AgriCell after extraction with ethanol 100% v/v and quantification by UV-Vis spectroscopy. Eugenol and thymol were quantified at 280 nm, whereas pyrethrum was quantified at 230 nm against its respective calibration standard curve. Also, Genistein was quantified at […], whereas eugenol was quantified at 280 nm against its respective calibration standard curve.

E. coli strain ATCC 8739 = assay: Bacterial agglutination (transmittance at 450 nm); format: cell-based; details: 300 μg/mL
Protocol: E. coli strain ATCC 8739 (which causes disease outside of the intestinal tract and its highly virulent in chickens) from a frozen stock was cultured in tryptose broth (10 g of tryptose, 2.5 g of sodium chloride, 0.5 g of dextrose, and 0.0025 g of thiamin hydrochloride in 500 mL of deionized water) at 37° C. for 48 hours. After incubation, 1 mL of E. coli cultures were taken from the surface of the broth and used to inoculate new broths that were incubated at 37° C. for 24 hours. After 24 hours, the bacterial cultures were centrifuged at 1800 g for 10 minutes to obtain bacterial pellets. The pellets were washed twice with 1x PBS+Ca^2+/Mg^2+ and then resuspended in 1 mL of PBS+Ca^2+/Mg^2+ to obtain the bacterial stock solutions. The optical density of the suspension was measure at 600 nm and bacterial cell densities (CFU/mL) were calculated using previously established bacterial growth curves for each strain of bacteria. […] The final concentration of each cuvette was 300 μg/mL of genistein equivalent and 5.0×10^8 CFU/mL in a total volume of 1 mL. The cuvettes were mixed via trituration and placed on an UV-Visible spectrophotometer equipped with an eight-position cuvette holder. The percent transmittance of light at 450 nm was measured every 1 min for 240 min. […] After 240 min, the area under the curve was calculated from the generated transmittance calibration curves.

[2] = system: 3A9 T-cell hybridomas cocultured with mouse peritoneal macrophages; assay: IL-2 expression in 3A9 T-cell hybridomas cocultured with macrophages (ELISA); format: cell-based; details: 10 mg/mL
Protocol: Mouse peritoneal macrophages were resuspended in media and plated in 24-well cell-culture plates at a concentration of 1×10^8 cells/well. After 3 hours, the macrophages were attached and washed with DMEM media until cells other than macrophages were removed. Supplemented media (DMEM, 10% FBS, 2 mM of L-alanyl-L-glutamine, 100 U/mL of media penicillin and 100 U/mL of media streptomycin) was added and the macrophages were incubated overnight at 37° C. and 5% CO2. The 3A9 T-cell hybridomas were maintained in DMEM supplemented with 10% FBS, 50 μg of gentamycin/mL media, 2 mM of L-alanyl-L-glutamine, 10 mM of HEPES buffer, 55 μM of 2-mercaptoethanol, and 1× non-essential amino acids. For experiments, media was removed from the macrophages and rinsed once with PBS. […] The media was removed, and cells washed once with PBS. The T-cell hybridomas (concentration equals 2× the number of macrophages) in 3A9 media (without phenol red) were added to the macrophages and incubated for 24 hours. Media was removed, placed in microfuge tubes, centrifuged for 4 minutes at 15,000×g, and IL-2 was measured by an ELISA kit (555148, BD Biosciences). Data were expressed as pg of IL-2/mL media.

[3] = HEL release from AgriCell in PBS; format: physicochemical; details: PBS pH 7.3, 37° C.
Protocol: Samples were incubated at 37° C. under mild shaking. After 15, 30, 45, 60, 90, 120, 180, and 240 minutes, the tubes were given a spin-off and samples of 250 μL of the supernatant were taken. These samples were replaced by PBS (pH 7.3). The non-encapsulated HEL in PBS was determined with the Lowry protein assay and AgriCell-encapsulated HEL was determined by arithmetic differential calculation.

[4] = Thermal degradation of essential oils at 40° C.; format: physicochemical; details: day 7 at 40° C., diluted 1:10 in deionized water
Protocol: (§1) AgriCell-encapsulated EOs (200 mg/mL of EO loaded with 200 mg/mL of AgriCell) were diluted 1:10 in deionized water (total volume 1000 μL, 14 replicates for each EO) and the solutions were left at 40° C. for a total period of 7 days. One replicate of each EO per treatment was collected daily and tested for EO content. Results were reported as concentration of EO as function of time for each stability condition.

[5] = Auto-oxidative degradation of essential oils under UV and Vis light; format: physicochemical; details: after 7 days under UV and Vis light
Protocol: as §1, with “under UV radiation” for “at 40° C.”, “content by UV-Vis spectroscopy as described in Example 2.” for “content.”

H. pylori = details: 2 mg/L; cited from earlier work
E. coli = details: cited from earlier work
[6] = system: Pseudomonas aeruginosa ATCC 15442; assay: Zone of inhibition test (Kirby-Bauer); format: cell-based; details: ATCC15442, read-out: growth inhibition compared to positive control (Vancomycin 30 μg/mL)
Protocol: (§2) In this example, the zone of inhibition test, also called a Kirby-Bauer Test, was conducted to measure antibiotic resistance of eugenol encapsulated into AgriCell. Approximately 1×10^8 cells from a selected bacterial strain (Escherichia coli ATCC 25922 and Pseudomonas aeruginosa ATCC 15442) were spread over an agar plate using a sterile swab, then incubated in the presence of the antimicrobial agent (adsorbed over a paper disc). If the bacterial strain is susceptible to the antimicrobial agent, then a zone of inhibition appears on the agar plate, whereas if the selected bacterial strain is resistant to the antimicrobial agent, then no zone is evident.

[7] = system: Escherichia coli ATCC 25922; assay: Zone of inhibition test (Kirby-Bauer); format: cell-based; details: ATCC25922, read-out: growth inhibition compared to positive control (Vancomycin 30 μg/mL)
Protocol: as §2

[8] = AI 100 mg/mL encapsulated into AgriCell (FIG. 4B)
[9] = EO 200 mg/mL encapsulated into AgriCell (FIG. 4A)

Compound | encapsulation efficacy [1, 8] | encapsulation efficacy [1, 9] | percentages of degradation [4] | autoxidatively degraded (degradation rates) [5] | existence (remained/not damaged) [5] | further results
O=c1c(-c2ccc(O)cc2)coc2cc(O)cc(O)c12 [genistein] | 83.6% |  |  |  |  | lag phase of agglutination curve (E. coli strain ATCC 8739): about 25 minutes
HEL: hen egg-white lysozyme, model protein antigen, 14.7 kDa |  |  |  |  |  | preincubation time to maximum IL-2 expression [2]: > 10 h; HEL released, initial burst stage ([3]; 15 minutes): 89.2%; HEL released ([3]; 240 minutes): 100.1%
Cc1ccc(C(C)C)c(O)c1 [thymol] |  | 91.8% | 20.9% | 55.8% | 44.2% | 
CC(C)=CCC/C(C)=C/CO [geraniol] |  |  |  |  |  | growth of H. pylori in vitro (H. pylori): inhibited the growth
CC(C)=CCCC(C)=CC=O [citral] |  |  |  |  |  | concentration in growth media that reduced the concentration of E. coli (E. coli): more than 0.01%; concentration with bactericidal effect (E. coli): 0.08%
C=CCc1ccc(O)c(OC)c1 [eugenol] | 91.1% | 95.5% | 17.3% | 82.7% | 17.3% | inhibition at 200 µg/mL [6]: < 60%; inhibition at 200 µg/mL [7]: < 80%
